Source: patent US10202406B2, “Boron cluster compounds and uses thereof” (priority 2011, dated 2019)
“Also recorded” adds a separate entry of the source.

Columns and labels:
[1] = target: T1, Nav1.2 voltage gated sodium channels (Homo sapiens, UniProt Q99250); experiment: Two electrode voltage clamp electrophysiology of voltage gated sodium channels expressed in Xenopus oocytes; format: cell-based; settings: 0.3 mM in superfusate for two minutes then washed out; holding potential -50 mV; Nav1.2 in Xenopus oocytes
T1 construct: expressed in transfected cells; host or cells: Xenopus oocytes
Experimental: Nav1.2 voltage gated sodium channels were expressed in Xenopus oocytes and standard two electrode voltage clamp techniques were used to measure ionic currents through the channels after depolarizations from a holding potential of −50 mV. The test drugs, all at a concentration of 0.3 mM, were added to the superfusate for two minutes as indicated by the black bars and then washed out. […] Data are expressed as means±standard error of the mean and n equals the number of cells used in FIG. 4 (a)-(d).

[2] = test system: mice; experiment: Motor deficit testing, inverted screen test after injection; settings: sensory block (hot plate) versus motor block (inverted screen test)
Experimental: Motor function was tested by observing the ability of the mice to walk hanging upside down from a screen, termed the inverted screen test.

[3] = test system: mice; experiment: Hot plate paw withdrawal latency after injection into a hind limb near the sciatic nerve; format: in vivo; settings: 50 microliters of 10 mM injected into hind limb near sciatic nerve, 55° C. hot plate, about 30 min
Experimental: The test drugs, all at a volume of 50 microliters and a concentration of 10 mM, were injected into a hind limb near the sciatic nerve. The time it takes for the animals to withdraw the foot of the injected limb from touching a 55° C. hot plate is measured in seconds. This time is termed the paw withdrawal latency and is measured over about a 30 min time period. Data are expressed as means±standard error of the mean and n equals the number of animals used in FIG. 5(a)-(d).

T1 sequence (Q99250 whole entry): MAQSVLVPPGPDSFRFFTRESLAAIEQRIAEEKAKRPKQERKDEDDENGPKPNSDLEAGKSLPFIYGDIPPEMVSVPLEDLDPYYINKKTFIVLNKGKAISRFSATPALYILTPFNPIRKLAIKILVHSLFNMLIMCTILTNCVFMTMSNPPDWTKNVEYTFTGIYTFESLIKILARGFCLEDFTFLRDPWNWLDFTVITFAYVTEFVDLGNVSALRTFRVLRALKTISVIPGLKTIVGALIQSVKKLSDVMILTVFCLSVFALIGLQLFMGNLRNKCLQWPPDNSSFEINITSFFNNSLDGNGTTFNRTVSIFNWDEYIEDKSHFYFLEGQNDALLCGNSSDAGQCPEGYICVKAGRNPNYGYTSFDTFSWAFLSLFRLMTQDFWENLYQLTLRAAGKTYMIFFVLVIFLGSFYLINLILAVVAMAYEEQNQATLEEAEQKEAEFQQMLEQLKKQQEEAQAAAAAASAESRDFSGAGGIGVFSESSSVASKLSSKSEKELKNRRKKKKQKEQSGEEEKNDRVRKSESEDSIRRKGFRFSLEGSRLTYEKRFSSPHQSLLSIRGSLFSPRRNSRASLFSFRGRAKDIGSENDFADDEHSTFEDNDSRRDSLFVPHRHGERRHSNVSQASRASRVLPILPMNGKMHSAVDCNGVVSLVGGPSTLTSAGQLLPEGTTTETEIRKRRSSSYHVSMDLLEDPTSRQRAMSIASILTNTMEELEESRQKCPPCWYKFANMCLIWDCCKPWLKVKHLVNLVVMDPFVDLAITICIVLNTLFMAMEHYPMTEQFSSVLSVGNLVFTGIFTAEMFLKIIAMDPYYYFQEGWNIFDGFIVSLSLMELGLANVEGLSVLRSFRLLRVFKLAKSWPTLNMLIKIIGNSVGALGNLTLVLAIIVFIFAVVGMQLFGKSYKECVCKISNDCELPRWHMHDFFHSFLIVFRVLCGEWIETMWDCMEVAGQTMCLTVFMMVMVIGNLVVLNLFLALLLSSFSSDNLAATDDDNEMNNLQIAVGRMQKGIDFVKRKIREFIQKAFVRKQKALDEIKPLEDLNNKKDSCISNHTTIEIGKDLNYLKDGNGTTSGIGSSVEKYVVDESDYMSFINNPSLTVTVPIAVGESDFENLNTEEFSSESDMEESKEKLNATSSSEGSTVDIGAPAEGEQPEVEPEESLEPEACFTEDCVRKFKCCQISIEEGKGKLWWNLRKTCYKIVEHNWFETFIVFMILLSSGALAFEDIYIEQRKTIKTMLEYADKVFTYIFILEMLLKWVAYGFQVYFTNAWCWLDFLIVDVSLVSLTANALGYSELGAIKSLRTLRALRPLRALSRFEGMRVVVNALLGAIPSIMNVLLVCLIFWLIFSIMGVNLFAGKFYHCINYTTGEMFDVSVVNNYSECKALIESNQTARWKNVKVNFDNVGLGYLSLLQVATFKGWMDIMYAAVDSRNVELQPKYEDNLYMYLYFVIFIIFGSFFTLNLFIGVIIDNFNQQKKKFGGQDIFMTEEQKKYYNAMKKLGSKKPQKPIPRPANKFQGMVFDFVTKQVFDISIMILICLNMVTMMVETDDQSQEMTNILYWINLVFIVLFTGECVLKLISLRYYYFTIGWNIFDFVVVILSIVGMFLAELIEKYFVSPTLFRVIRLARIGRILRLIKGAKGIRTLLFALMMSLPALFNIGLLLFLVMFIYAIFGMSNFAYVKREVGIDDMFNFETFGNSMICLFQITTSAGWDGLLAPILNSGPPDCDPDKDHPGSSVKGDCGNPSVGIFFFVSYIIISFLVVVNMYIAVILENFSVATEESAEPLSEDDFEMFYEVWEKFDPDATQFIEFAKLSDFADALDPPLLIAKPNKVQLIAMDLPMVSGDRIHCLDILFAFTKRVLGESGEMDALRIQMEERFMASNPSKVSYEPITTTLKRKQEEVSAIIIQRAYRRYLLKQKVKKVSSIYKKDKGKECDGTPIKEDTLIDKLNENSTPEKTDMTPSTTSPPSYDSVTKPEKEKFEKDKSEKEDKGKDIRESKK

Molecule	block of voltage gated sodium channels (ionic currents) [1]	selectivity of block of sensory nerves over motor nerves [2]	analgesia / sensory block (paw withdrawal latency) [3]
2-Diethylaminoacetamido-1,12-closo-carborane [p-carborane lidocaine]	block voltage gated sodium channels in a reversible manner	selectively blocked sensory nerves over motor nerves; also recorded: selective block of sensory nerves over motor nerves	provide analgesia
3-Diethylaminoacetamido-1,2-closo-carborane [o-carborane lidocaine]	block voltage gated sodium channels in a reversible manner	selectively blocked sensory nerves over motor nerves; also recorded: selective block of sensory nerves over motor nerves	provide analgesia
9-Diethylaminoacetamido-1,7-closo-carborane [m-carborane lidocaine]	block voltage gated sodium channels in a reversible manner	–	did not provide analgesia; also recorded: neither motor nor sensory block
CCN(CC)CC(=O)Nc1c(C)cccc1C [lidocaine, reference compound]	block voltage gated sodium channels in a reversible manner	–	provide analgesia
